Data set [1] deals with SW620 (colorectal adenocarcinoma, metastatic). Nature of the data set: MTT assay, SW620. As to conditions: Homo sapiens, SW-620, 72 h. It is filed as cell-based. The method, then: (§1) The tested compounds were dissolved in DMSO in five, 10-fold dilutions (0.01–100 µM). The cell lines HeLa (cervical carcinoma), SW620 (colorectal adenocarcinoma, metastatic), HepG2 (hepatocellular carcinoma), CFPAC-1 (ductal pancreatic adenocarcinoma), and WI38 (human lung fibroblast cell line), were cultured as monolayers and maintained in Dulbecco’s modified Eagle medium (DMEM) supplemented with 10% fetal bovine serum (FBS), 2 mM L-glutamine, 100 U mL^−1 penicillin and 100 μg mL^−1 streptomycin in a humidified atmosphere with 5% CO2 at 37 °C.
(§2) The MTT assay was used for evaluation of effects of tested compounds on viability of carcinoma and control cell lines. About 5000 cells per well were seeded onto a series of standard 96-well plates on day 0. Test agents were then added and incubated for further 72 h. Working dilutions of tested compounds were freshly prepared in the growth medium, on the day of testing. The solvent (DMSO) was also tested for eventual inhibitory activity by adjusting its concentration to be the same as in the working concentrations (DMSO concentration never exceeded 0.1%). After 72 h of incubation, the cell growth rate was evaluated by performing the MTT assay: experimentally determined absorbance values were transformed into a cell percentage growth (PG) using the formulas proposed by NIH and described previously. This method directly relies on control cells number at the day of assay because it compares the growth of treated cells with the growth of untreated cells in control wells on the same plate, the results are therefore a percentile difference from the calculated expected value.
(§3) If, however, all of the tested concentrations produce PGs exceeding the respective reference level of effect (e.g., PG value of 50) for a given cell line, the highest tested concentration is assigned as the default value (in the screening data report that default value is preceded by a “>” sign). Each test point was performed in quadruplicate in three individual experiments. The results were statistically analyzed (Analysis of variance (ANOVA), Tukey post-hoc test at p < 0.05). Finally, the effects of the tested substances were evaluated by plotting the mean percentage growth for each cell type in comparison to control on dose response graphs.
For orientation: Tetrazolium assays rely on reduction of a dye to a coloured formazan, in cell work by metabolically active cells.

The subject of data set [2] is CFPAC-1 (ductal pancreatic adenocarcinoma). Nature of the data set: MTT assay, CFPAC-1. It is filed as cell-based. The conditions noted are these: Homo sapiens, 72 h. The method, then: as §1, §2, §3
The test system of data set [3] is HepG2 (hepatocellular carcinoma). Nature of the data set: MTT assay, HepG2. It is filed as cell-based. The conditions noted are these: Homo sapiens, 72 h. The method, then: as §1, §2, §3
Data set [4] has as its system HeLa (cervical carcinoma). Nature of the data set: MTT assay, HeLa. As to conditions: Homo sapiens, 72 h. It is filed as cell-based. As for the experimental part:
as §1, §2, §3

Data set [5] in a line: MTT assay, WI38 healthy control. It is filed as cell-based. The conditions noted are these: WI38 human lung fibroblast cells, WI38 healthy control human fibroblast cell line. The method, then:
as §1, §2, §3

For `Cc1c(O)cc(C(C)C)c2oc(-c3ccc(Br)cc3)nc12` [1d, 2-(4-Bromophenyl)-4-methyl-7-isopropyl-1,3-benzoxazole-5-ol], the melting point came out at 190 °C. Also, in data set [1], 51.5 µM corresponded to half-maximal inhibition (IC50). This compound also registered a concentration for half-maximal inhibition (IC50) in data set [2] of 34.5 µM. It took 30.5 µM to reach half-maximal inhibition in data set [3] (IC50). This compound showed an IC50 in data set [4] of 30.1 µM. The compound also came in with an IC50 at 72 h in data set [5] of 57.6 µM.
`Cc1c(O)cc(C(C)C)c2oc(-c3ccc([N+](=O)[O-])cc3)nc12` [1g, 4-Methyl-2-(4-nitrophenyl)-7-isopropyl-1,3-benzoxazole-5-ol]: the melting point amounted to 188 °C. The same compound displayed a concentration for half-maximal inhibition (IC50) in data set [1] of 54.9 µM. The compound also showed an IC50 in data set [2] of more than 100 µM. In data set [3], this compound came in with an IC50 of more than 100 µM. In data set [4], this compound registered an IC50 of more than 100 µM. In addition, the IC50 at 72 h in data set [5] came out at 6.21 µM.
`Cc1c(O)cc(C(C)C)c2oc(-c3cccs3)nc12` [1j, 4-Methyl-7-isopropyl-2-(thiophene-2-yl)-1,3-benzoxazole-5-ol] returned a melting point of 152 °C. In data set [1], this compound registered an IC50 of 31.6 µM. In data set [2], this compound came in with a half-inhibitory concentration (IC50) of 27 µM. Besides, the 50% inhibitory concentration (IC50) in data set [3] is 7.28 µM. Further, half-maximal inhibition in data set [4] (IC50) was put at 10.3 µM. The half-inhibitory concentration (IC50) at 72 h in data set [5] came out at 9.97 µM.
Regarding `Cc1c(O)cc(C(C)C)c2oc(-c3ccccc3O)nc12` [1b, 2-(2-Hydroxyphenyl)-4-methyl-7-isopropyl-1,3-benzoxazole-5-ol], the melting point was determined as 172 °C. This compound yielded an IC50 in data set [1] of 43.7 µM. For the same compound, the half-inhibitory concentration (IC50) in data set [2] was found to be 31 µM. Moreover, the IC50 in data set [3] was found to be 32.3 µM. Further, the concentration for half-maximal inhibition (IC50) in data set [4] was determined as 25 µM. In data set [5], the midpoint of inhibition, the IC50 at 72 h, lay at 29.8 µM.
In turn, `COc1cc(-c2nc3c(C)c(O)cc(C(C)C)c3o2)ccc1O` [1i, 2-(4-Hydroxy-3-methoxyphenyl)-4-methyl-7-isopropyl-1,3-benzoxazole-5-ol] returned a melting point of 168 °C. This compound also gave a half-maximal inhibitory concentration (IC50) in data set [1] of 55.3 µM. This compound showed an IC50 in data set [2] of 40.6 µM. Moreover, 4.58 µM corresponded to half-maximal inhibition in data set [3] (IC50). In addition, the half-inhibitory concentration (IC50) in data set [4] was determined as 6.38 µM. In data set [5], the IC50 at 72 h was 9.32 µM.
With `Cc1c(O)cc(C(C)C)c2oc(-c3ccccc3)nc12` [1a, 4-Methyl-2-phenyl-7-isopropyl-1,3-benzoxazole-5-ol], the melting point amounted to 164 °C. Besides, the 50% inhibitory concentration (IC50) in data set [1] was more than 100 µM. The compound also gave an IC50 in data set [2] of 90.2 µM. For the same compound, the concentration for half-maximal inhibition (IC50) in data set [3] stood at 39.3 µM. Besides, the 50% inhibitory concentration (IC50) in data set [4] came out at 32.2 µM. This compound also yielded a half-inhibitory concentration (IC50) at 72 h in data set [5] of 19.9 µM.
As for `COc1ccc(-c2nc3c(C)c(O)cc(C(C)C)c3o2)cc1` [1h, 2-(4-Methoxyphenyl)-4-methyl-7-isopropyl-1,3-benzoxazole-5-ol], the melting point was 178 °C. This compound also had a concentration for half-maximal inhibition (IC50) in data set [1] of more than 100 µM. Besides, the IC50 in data set [2] turned out to be 97 µM. The same compound registered an IC50 in data set [3] of more than 100 µM. For the same compound, in data set [4], the half-inhibitory concentration (IC50) was more than 100 µM. Moreover, the concentration for half-maximal inhibition (IC50) at 72 h in data set [5] amounted to 75.9 µM.

One may read the IC50 as the point on the concentration scale where inhibition reaches its midpoint. A high value points to weaker potency. A word on the melting point: it is the temperature of the solid-liquid transition.

Values taken from publication PMC6321291, “Synthesis, Biological Evaluation and Docking Studies of Benzoxazoles Derived from Thymoquinone” (Molecules, 2018).
